Tests used:
[1] = DPPH scavenging antioxidant activity
Method: The antioxidant activity of ten compounds was determined using DPPH [32–34]. A solution 1: prepared by dissolving DPPH (0.002 g) in ethanol (50 mL etnanol). Solution 2: prepared by dissolving different weights 0.05, 0.01 g of each sample in 1 mL of DMSO then take 10 µL of each sample solution with 1 mL ethanol. Then mix 1 mL of solution 1 with 1 mL of solution 2 then vortex the resulting mixture in the dark for about 30 min. The absorbance of the mixture was measured by spectrophotometer at λmax = 517 nm against blank 1 mL absolute ethanol and compared to the ascorbic acid (Vitamin C).
Ten newly synthesized compounds were studied as in vitro antioxidants by measuring of their DPPH scavenging activity which is represented as a percentage % [32]^. Results are represented by mean ± SD of three replicates. […] The higher dose concentration of 0.05 μg/mL represents higher antioxidant activity. […] The high antioxidant activity is referred to the presence of C=O, NH2, and OH groups like ascorbic acid which can be easily oxidized and reduced and can be used as antioxidant drugs. (Fig. 8 and Table 9).

[2] = system: MCF7 cell line; test: In vitro cytotoxic activity, MTT method, MCF7; assay type: cell-based, human; conditions: for IC50: Homo sapiens, MCF7, MCF7 cell line, MTT
Method: (§1) Cell lines: The in vitro human breast cancerous cell line (MCF7), lung cancerous cell lines (A549) and normal cell lines were purchased from Serum and Vaccine formulation in Cairo-Egypt.
(§2) In vitro cytotoxic activity of all synthesized compounds against two human breast cell line (MCF7) and lung cell lines (A549) was evaluated according to the MTT method. Firstly, Growth the cell line medium in 96 well tissue culture plate was injected with 10^5 cells/mL (100 uL/plate well) of the cell line and incubated at 37 °C for 24 h to develop a monolayer sheet then the formed growth medium was poured from 96 well microtiter plates after the confluent sheet of cells. […] Secondly, add 0.1 mL of each concentration tetrahydroisoquinoline sample to each plate. The plates were incubated at 37 °C. Thirdly MTT solution (5 mg/mL in PBS) is prepared. Add 20 µL of MTT solution to each well plates. And shaking in 150 rpm for 5 min, to mix the MTT into the media. Then incubate at (37 °C, 5% CO2) for 1–5 h. Finally read the optical density at 560 nm and subtract background at 620 nm.
(§3) In this work, doxorubicin was used as a positive control drug for comparison with the synthesized compounds under the same experimental conditions.

[3] = system: A549 cell line; test: In vitro cytotoxic activity, MTT method, A549; conditions: for IC50: Homo sapiens, read-out: IC50 ± SD
Method: as §1, §2, §3

SMILES: CC(=O)C1C(c2ccc(N(C)C)cc2)c2c(C)nc(SCC(=O)Nc3ccccc3)c(C#N)c2CC1(C)O (stereo not shown) [Compound 7a, 2-[(7-Acetyl-4-cyano-1,6-dimethyl-6-hydroxy-8-(4-N,N-dimethylamino-phenyl)-5,6,7,8-tetrahydroisoquinolin-3-yl)thio]-N-phenylacetamide]
- DPPH scavenging, inhibition (%) ([1]; 0.01 µg/mL): 43.26 ± 0.73%
- DPPH scavenging, inhibition (%) ([1]; 0.05 µg/mL): 62.96 ± 0.73%
- IC50 [2]: 2.218 ± 0.004 µM
- Toxicity % ([2]; MCF7, 0.0487 µMol): -5.346%
- Viability % ([2]; MCF7, 0.0487 µMol): 105.8%
- Toxicity % ([2]; MCF7, 0.0975 µMol): -3.456%
- Viability % ([2]; MCF7, 0.0975 µMol): 103.5%
- Toxicity % ([2]; MCF7, 0.195 µMol): -2.859%
- Viability % ([2]; MCF7, 0.195 µMol): 102.9%
- Toxicity % ([2]; MCF7, 0.391 µMol): 8.047%
- Viability % ([2]; MCF7, 0.391 µMol): 91.95%
- Toxicity % ([2]; MCF7, 0.781 µMol): 23.12%
- Viability % ([2]; MCF7, 0.781 µMol): 76.88%
- Toxicity % ([2]; MCF7, 1.562 µMol): 33.82%
- Viability % ([2]; MCF7, 1.562 µMol): 66.18%
- Toxicity % ([2]; MCF7, 3.125 µMol): 52.98%
- Viability % ([2]; MCF7, 3.125 µMol): 47.02%
- Toxicity % ([2]; MCF7, 6.25 µMol): 71.85%
- Viability % ([2]; MCF7, 6.25 µMol): 28.15%
- Toxicity % ([2]; MCF7, 12.5 µMol): 91.95%
- Viability % ([2]; MCF7, 12.5 µMol): 8.047%
- Toxicity % ([2]; MCF7, 25 µMol): 97.39%
- Viability % ([2]; MCF7, 25 µMol): 2.614%
- Toxicity % ([3]; A549, Conc. 0.04875 µMol): 0.09882%
- Viability % ([3]; A549, Conc. 0.04875 µMol): 99.9%
- Toxicity % ([3]; A549, Conc. 0.0975 µMol): 0.1346%
- Viability % ([3]; A549, Conc. 0.0975 µMol): 99.87%
- Toxicity % ([3]; A549, Conc. 0.195 µMol): 0.168%
- Viability % ([3]; A549, Conc. 0.195 µMol): 99.83%
- Toxicity % ([3]; A549, Conc. 0.391 µMol): 13.91%
- Viability % ([3]; A549, Conc. 0.391 µMol): 86.09%
- Toxicity % ([3]; A549, Conc. 0.781 µMol): 29.94%
- Viability % ([3]; A549, Conc. 0.781 µMol): 70.06%
- Toxicity % ([3]; A549, Conc. 1.562 µMol): 41.33%
- Viability % ([3]; A549, Conc. 1.562 µMol): 58.67%
- Toxicity % ([3]; A549, Conc. 3.125 µMol): 53.33%
- Viability % ([3]; A549, Conc. 3.125 µMol): 46.67%
- Toxicity % ([3]; A549, Conc. 6.25 µMol): 80.11%
- Viability % ([3]; A549, Conc. 6.25 µMol): 19.89%
- Toxicity % ([3]; A549, Conc. 12.5 µMol): 91.33%
- Viability % ([3]; A549, Conc. 12.5 µMol): 8.669%
- Toxicity % ([3]; A549, Conc. 25 µMol): 96.98%
- Viability % ([3]; A549, Conc. 25 µMol): 3.024%
- IC50 [3]: 1.586 ± 0.001 µM

SMILES: CC(=O)C1C(c2ccc(N(C)C)cc2)c2c(C)nc(SCC(=O)Nc3ccc(C)cc3)c(C#N)c2CC1(C)O (stereo not shown) [Compound 7b, 2-[(7-Acetyl-4-cyano-1,6-dimethyl-6-hydroxy-8-(4-N,N-dimethylamino-phenyl)-5,6,7,8-tetrahydroisoquinolin-3-yl)thio]-N-(4-tolyl)acetamide]
- DPPH scavenging, inhibition (%) ([1]; 0.01 µg/mL): 48.59 ± 0.73%
- DPPH scavenging, inhibition (%) ([1]; 0.05 µg/mL): 52.19 ± 0.58%
- IC50 [2]: 0.474 ± 0.006 µM
- Toxicity % ([2]; MCF7, 0.0487 µMol): 4.569%
- Viability % ([2]; MCF7, 0.0487 µMol): 95.4311%
- Toxicity % ([2]; MCF7, 0.0975 µMol): 6.234%
- Viability % ([2]; MCF7, 0.0975 µMol): 93.77%
- Toxicity % ([2]; MCF7, 0.195 µMol): 8.333%
- Viability % ([2]; MCF7, 0.195 µMol): 91.67%
- Toxicity % ([2]; MCF7, 0.391 µMol): 39.62%
- Viability % ([2]; MCF7, 0.391 µMol): 60.38%
- Toxicity % ([2]; MCF7, 0.781 µMol): 74.92%
- Viability % ([2]; MCF7, 0.781 µMol): 25.08%
- Toxicity % ([2]; MCF7, 1.562 µMol): 82.39%
- Viability % ([2]; MCF7, 1.562 µMol): 17.61%
- Toxicity % ([2]; MCF7, 3.125 µMol): 86.44%
- Viability % ([2]; MCF7, 3.125 µMol): 13.56%
- Toxicity % ([2]; MCF7, 6.25 µMol): 93.1%
- Viability % ([2]; MCF7, 6.25 µMol): 6.904%
- Toxicity % ([2]; MCF7, 12.5 µMol): 96.61%
- Viability % ([2]; MCF7, 12.5 µMol): 3.391%
- Toxicity % ([2]; MCF7, 25 µMol): 96.57%
- Viability % ([2]; MCF7, 25 µMol): 3.431%
- Toxicity % ([3]; A549, Conc. 0.04875 µMol): 0.2467%
- Viability % ([3]; A549, Conc. 0.04875 µMol): 99.7534%
- Toxicity % ([3]; A549, Conc. 0.0975 µMol): 0.3467%
- Viability % ([3]; A549, Conc. 0.0975 µMol): 99.6534%
- Toxicity % ([3]; A549, Conc. 0.195 µMol): 0.5128%
- Viability % ([3]; A549, Conc. 0.195 µMol): 99.49%
- Toxicity % ([3]; A549, Conc. 0.391 µMol): 14.2%
- Viability % ([3]; A549, Conc. 0.391 µMol): 85.8%
- Toxicity % ([3]; A549, Conc. 0.781 µMol): 35.82%
- Viability % ([3]; A549, Conc. 0.781 µMol): 64.18%
- Toxicity % ([3]; A549, Conc. 1.562 µMol): 53.81%
- Viability % ([3]; A549, Conc. 1.562 µMol): 46.19%
- Toxicity % ([3]; A549, Conc. 3.125 µMol): 72.39%
- Viability % ([3]; A549, Conc. 3.125 µMol): 27.61%
- Toxicity % ([3]; A549, Conc. 6.25 µMol): 86.39%
- Viability % ([3]; A549, Conc. 6.25 µMol): 13.61%
- Toxicity % ([3]; A549, Conc. 12.5 µMol): 93.85%
- Viability % ([3]; A549, Conc. 12.5 µMol): 6.154%
- Toxicity % ([3]; A549, Conc. 25 µMol): 96.41%
- Viability % ([3]; A549, Conc. 25 µMol): 3.59%
- IC50 [3]: 0.987 ± 0.002 µM
